Results from US7030145B2, “Pyridinyl derivatives for the treatment of depression” (Bristol-Myers Squibb Company, priority 2003, dated 2006).

Key:
[1] = target: T1, cloned human CRF-R1 receptors (Homo sapiens, UniProt P34998); experiment: CRF-R1 receptor binding assay (inhibition of 125I-ovine-CRF binding to cell membranes); parameters: key to activity (Ki class in the CRF assays): a: Ki≦100 nM; b: 100 nM<Ki≦500 nM; c: 500 nM<Ki≦5,000 nM; activity reported in percent inhibition at 10 μM; details: membranes of 293EBNA cells transfected with hCRFR1, class d = reported as percent inhibition at 10 μM, figures not given; for Ki: read-out: activity (Ki class in the CRF assays)
T1 construct: the coding region was amplifies by PCR from start to stop codons; expressed in transfected cells; membranes
T1 sequence (P34998 24-415): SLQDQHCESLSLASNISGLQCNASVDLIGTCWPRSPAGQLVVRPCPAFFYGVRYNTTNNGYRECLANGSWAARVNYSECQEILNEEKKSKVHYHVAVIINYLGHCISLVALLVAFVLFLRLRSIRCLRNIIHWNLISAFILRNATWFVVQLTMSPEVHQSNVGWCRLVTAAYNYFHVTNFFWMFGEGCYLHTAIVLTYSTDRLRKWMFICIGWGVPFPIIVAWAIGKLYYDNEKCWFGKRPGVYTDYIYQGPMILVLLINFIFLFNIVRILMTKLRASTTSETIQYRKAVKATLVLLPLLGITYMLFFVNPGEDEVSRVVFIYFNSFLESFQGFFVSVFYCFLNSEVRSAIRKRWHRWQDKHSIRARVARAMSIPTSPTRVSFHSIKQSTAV
Description: The following is a description of the isolation of cell membranes containing cloned human CRF-R1 receptors for use in a standard binding assay as well as a description of the assay itself.
Messenger RNA was isolated from human hippocampus. […]. The mRNA was reverse transcribed using oligo (dt) 12–18 and the coding region was amplifies by PCR from start to stop codons. The resulting PCR fragment was cloned into the EcoRV site of pGEMV, from whence the insert was reclaimed using XhoI+XbaI and cloned into the XhoI+XbaI sites of vector pm3 as (which contains a CMV promoter, the SV′t′ splice and early poly A signals, an Eptein-Barr viral origin of replication, and a hygromycin selectable marker). The resulting expression vector, called phchCRFR was transfected in 293EBNA cells and cells retaining the episome were selected in the presence of […] hygromycin. Cells surviving 4 weeks of selection in hygromycin were pooled, adapted to growth in suspension and used to generate membranes for the binding assay described below. Individual aliquots containing approximately 1×10^8 of the suspended cells were then centrifuged to form a pellet and frozen. For the binding assay a frozen pellet described above containing 293EBNA cells transfected with hCRFR1 receptors is homogenized in 10 mL of ice cold tissue buffer (50 mM HEPES buffer pH 7.0, containing 10 MM MgCl2, 2 mM EGTA, 1 μg/mL apotinin, 1 μg/mL leupeptin and 1 μg/mL pepstatin). The homoginate is centrifuged at 40,000×g for 12 min and the resulting pellet rehomogenized in 10 mL of tissue buffer. After another centrifugation at 40,000×g for 12 min, the pellet is resuspended to a protein concentration of 360 μg/mL to be used in the assay.
Binding assays are performed in 96 well plates; each well having a 300 μL capacity. To each well is added 50 μL of test drug dilutions (final concentration of drugs range from 10^−10–10^−5 M), 100 μL of ^125I-ovine-CRF (^125I-o-CRF) (final concentration 150 pM) and 150 μL of the cell homoginate described above. Plates are then allowed to incubate at room temperature for 2 hours before filtering the incubate over GF/F filters (presoaked with 0.3% polyethyleneimine) using an appropriate cell harvester. Filters are rinsed 2 times with ice cold assay buffer before removing individual filters and assessing them for radioactivity on a gamma counter.
Curves of the inhibition of ^125I-o-CRF binding to cell membranes at various dilutions of test drug are analyzed by the iterative curve fitting program LIGAND [P. J. Munson and D. Rodbard, Anal. Biochem., 107:220 (1980), which provides Ki values for inhibition which are then used to assess biological activity. […]
Messenger RNA was isolated from human hippocampus. The mRNA was isolated from human hippocampus. The mRNA was reverse transcribed using oligo (dt) 12–18 and the coding region was amplifies by PCR from start to stop codons. The resulting PCR fragment was cloned into the EcoRV site of pGEMV, from whence the insert was reclaimed using XhoI+XbaI and cloned into the XhoI+XbaI sites of vector pm3 as (which contains a CMV promoter, the SV′t′ splice and early poly A signals, an Eptein-Barr viral origin of replication, and a hygromycin selectable marker). The resulting expression vector, called phchCRFR was transfected in 293EBNA cells and cells retaining the episome were selected in the presence of […] hygromycin. Cells surviving 4 weeks of selection in hygromycin were pooled, adapted to growth in suspension and used to generate membranes for the binding assay described below. […]
A frozen pellet described above containing 293EBNA cells transfected with hCRFR1 receptors or the rat frontal cortex tissue dissected from frozen rat brains was prepared as the source of membranes expressing CRF1 receptors used in binding assays. […]

Ki [1] | melting point | activity (Ki class in the CRF assays) [1] | SMILES
500 to 5000 nM | 152 to 153 °C |  | Cc1cc(C)c(Nc2nc(C)ccc2S(=O)(=O)c2ccc(OCCCO)cc2)c(C)c1 [Example 16, 3-{4-[6-Methyl-2-(2,4,6-trimethylphenylamino)-pyridine-3-sulfonyl]-phenoxy}-propan-1-ol]
500 to 5000 nM | 116 to 118 °C |  | CCOC(=O)COc1ccc(S(=O)(=O)c2ccc(C)nc2Nc2c(C)cc(C)cc2C)cc1 [Example 17, {4-[6-Methyl-2-(2,4,6-trimethylphenylamino)-pyridine-3-sulfonyl]-phenoxy}-acetic acid ethyl ester]
≤ 100 nM | 155 to 158 °C |  | Cc1cc(C)c(Nc2nc(C)ccc2S(=O)(=O)c2ccc(OCc3cccc(C#N)c3)cc2)c(C)c1 [Example 24, 3-{4-[6-Methyl-2-(2,4,6-trimethylphenylamino)-pyridine-3-sulfonyl]-phenoxymethyl}-benzonitrile]
100 to 500 nM | 96 to 97 °C |  | CCOc1cccc(S(=O)(=O)c2ccc(C)nc2Nc2c(C)cc(C)cc2C)c1 [Example 58, [3-(3-Ethoxybenzenesulfonyl)-6-methylpyridin-2-yl]-(2,4,6-trimethylphenyl)-amine]
≤ 100 nM | 132 to 134 °C |  | Cc1cc(C)c(Nc2nc(C)ccc2S(=O)(=O)c2ccc(OCc3c(F)cccc3[N+](=O)[O-])cc2)c(C)c1 [Example 34, {3-[4-(2-Fluoro-6-nitrobenzyloxy)-benzenesulfonyl]-6-methyl-pyridin-2-yl}-(2,4,6-trimethylphenyl)-amine]
100 to 500 nM | 200 to 201 °C |  | Cc1cc(C)c(Nc2nc(C)ccc2S(=O)(=O)c2ccc(OCc3csc(C)n3)cc2)c(C)c1 [Example 21, {6-Methyl-3-[4-(2-methylthiazol-4-ylmethoxy)-benzenesulfonyl]-pyridin-2-yl}-(2,4,6-trimethylphenyl)-amine]
 | 124 to 125 °C | d | COc1ccccc1COc1ccc(S(=O)(=O)c2ccc(C)nc2Nc2ccc(OC(F)F)cc2Cl)cc1 [Example 5, (2-Chloro-4-difluoromethoxyphenyl)-{3-[4-(2-methoxybenzyloxy)-benzenesulfonyl]-6-methylpyridin-2-yl}-amine]
100 to 500 nM | 208 to 210 °C |  | Cc1cc(C)c(Nc2nc(C)ccc2S(=O)(=O)c2ccc(OCc3ccc(C#N)cc3)cc2)c(C)c1 [Example 23, 4-{4-[6-Methyl-2-(2,4,6-trimethylphenylamino)-pyridine-3-sulfonyl]-phenoxymethyl}-benzonitrile]
100 to 500 nM | 182 to 184 °C |  | Cc1cc(C)c(Nc2nc(C)ccc2S(=O)(=O)c2ccc(OCc3ccccn3)cc2)c(C)c1 [Example 19, {6-Methyl-3-[4-(pyridin-2-ylmethoxy)-benzenesulfonyl]-pyridin-2-yl}-(2,4,6-trimethylphenyl)-amine]
≤ 100 nM | 124 to 126 °C |  | COc1cccc(COc2ccc(S(=O)(=O)c3ccc(C)nc3Nc3c(C)cc(C)cc3C)cc2)c1OC [Example 32, {3-[4-(2,3-Dimethoxybenzyloxy)-benzenesulfonyl]-6-methylpyridin-2-yl}-(2,4,6-trimethylphenyl)-amine]

Continued, molecule first:

SMILES | Ki [1] | melting point | activity (Ki class in the CRF assays) [1]
COc1ccc(S(=O)(=O)c2ccc(C)nc2Nc2c(C)cc(C)cc2C)cc1 [Example 9, [3-(4-Methoxybenzenesulfonyl)-6-methylpyridin-2-yl]-(2,4,6-trimethylphenyl)-amine] | 100 to 500 nM | 165 to 167 °C | 
COc1cc(COc2ccc(S(=O)(=O)c3ccc(C)nc3Nc3c(C)cc(C)cc3C)cc2)cc(OC)c1 [Example 30, {3-[4-(3,5-Dimethoxybenzyloxy)-benzenesulfonyl]-6-methyl-pyridin-2-yl}-(2,4,6-trimethylphenyl)-amine] | ≤ 100 nM | 107 to 109 °C | 
Cc1cc(C)c(Nc2nc(C)ccc2S(=O)(=O)c2ccc(OCc3ccccc3)cc2)c(C)c1 [Example 11, [3-(4-Benzyloxybenzenesulfonyl)-6-methylpyridin-2-yl]-(2,4,6-trimethylphenyl)-amine] | ≤ 100 nM | 158 to 160 °C | 
Cc1cc(C)c(Nc2nc(C)ccc2S(=O)(=O)c2ccc(Br)cc2)c(C)c1 [Example 46, [3-(4-Bromobenzenesulfonyl)-6-methylpyridin-2-yl]-(2,4,6-trimethylphenyl)-amine] | ≤ 100 nM | 140 to 141 °C | 
Cc1cc(C)c(Nc2nc(C)ccc2S(=O)(=O)c2cccc(O)c2)c(C)c1 [Example 57, 3-[6-Methyl-2-(2,4,6-trimethylphenylamino)-pyridine-3-sulfonyl]-phenol] | 100 to 500 nM | 196 to 197 °C | 
COc1ccccc1COc1ccc(S(=O)(=O)c2ccc(C)nc2Nc2c(C)cc(C)cc2C)cc1 [Example 27, {3-[4-(2-Methoxybenzyloxy)-benzenesulfonyl]-6-methylpyridin-2-yl}-(2,4,6-trimethylphenyl)-amine] | ≤ 100 nM | 148 to 150 °C | 
COc1ccc(OC)c(COc2ccc(S(=O)(=O)c3ccc(C)nc3Nc3c(C)cc(C)cc3C)cc2)c1 [Example 31, {3-[4-(2,5-Dimethoxybenzyloxy)-benzenesulfonyl]-6-methyl-pyridin-2-yl}-(2,4,6-trimethylphenyl)-amine] | ≤ 100 nM | 128 to 130 °C | 
Cc1cc(C)c(Nc2nc(C)ccc2S(=O)(=O)c2ccc(OCc3c(C)cccc3C)cc2)c(C)c1 [Example 36, {3-[4-(2,6-Dimethylbenzyloxy)-benzenesulfonyl]-6-methyl-pyridin-2-yl}-(2,4,6-trimethylphenyl)-amine] | ≤ 100 nM | 136 to 138 °C | 
COc1ccccc1COc1ccc(S(=O)(=O)c2ccc(C)nc2Nc2cc(F)c(N(C)C)cc2Cl)cc1 [Example 3, 2-Chloro-5-fluoro-N^1-{3-[4-(2-methoxybenzyloxy)-benzenesulfonyl]-6-methylpyridin-2-yl}-N^4,N^4-dimethylbenzene-1,4-diamine] |  | 68 to 70 °C | d
Cc1cc(C)c(Nc2nc(C)ccc2S(=O)(=O)c2ccc(OCc3ccccc3[N+](=O)[O-])cc2)c(C)c1 [Example 29, {6-Methyl-3-[4-(2-nitrobenzyloxy)-benzenesulfonyl]-pyridin-2-yl}-(2,4,6-trimethylphenyl)-amine] | ≤ 100 nM | 153 to 155 °C | 
COc1ccccc1COc1ccc(S(=O)(=O)c2ccc(C)nc2Nc2cc(OC)c(OC)cc2Cl)cc1 [Example 6, (2-Chloro-4,5-dimethoxyphenyl)-{3-[4-(2-methoxybenzyloxy)-benzenesulfonyl]-6-methylpyridin-2-yl}-amine] |  | 149 to 151 °C | d
